In US20240254114A1, “PREPARATION OF FUSED AZOLE DERIVATIVES AS NOVEL DIACYLGLYCERIDE 0-ACYLTRANSFERASE 2 INHIBITORS” (Merck Sharp & Dohme LLC, priority 2022, published 2024):
pIC50: −log10 of the molar value.

What follows are compounds tested against human DGAT2 (Homo sapiens (Human), UniProt Q96PD7) (assay: DGAT2 Enzymatic Activity Assay). Settings: Human DGAT2 IC50, hDGAT2 membrane prep from Sf-9 cells; 13C18-triolein product by LC/MS/MS.
Chain of human DGAT2 (Q96PD7 whole entry): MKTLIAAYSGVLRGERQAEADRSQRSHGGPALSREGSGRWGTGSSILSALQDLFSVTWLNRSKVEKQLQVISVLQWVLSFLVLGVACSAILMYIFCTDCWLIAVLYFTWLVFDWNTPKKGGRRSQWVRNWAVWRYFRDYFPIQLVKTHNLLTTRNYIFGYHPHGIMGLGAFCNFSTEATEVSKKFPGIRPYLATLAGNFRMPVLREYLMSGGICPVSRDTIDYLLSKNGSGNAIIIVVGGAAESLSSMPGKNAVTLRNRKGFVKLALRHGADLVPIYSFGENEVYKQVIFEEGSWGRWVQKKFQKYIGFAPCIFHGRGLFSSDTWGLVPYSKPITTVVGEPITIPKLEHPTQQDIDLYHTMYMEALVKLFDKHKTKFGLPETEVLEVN
Experimental: Sf-9 insect cells were maintained in Grace's insect cell culture medium with 10% heated-inactivated fetal bovine serum, 1% Pluronic F-68 and 0.14 μg/ml Kanamycine sulfate at 27° C. in a shaker incubator. After infection with untagged baculovirus expressing human DGAT2 (hDGAT2) at multiplicity of infection (MOI) 3 for 48 hours, cells were harvested. Cell pellets were suspended in buffer containing 10 mM Tris-HCl pH 7.5, 1 mM EDTA, 250 mM sucrose and Complete Protease Inhibitor Cocktail (Sigma Aldrich), and sonicated on ice. Cell debris were removed by centrifugation at 2000×g for 15 minutes. Membrane fractions were isolated by ultracentrifugation (100,000×g), resuspended in the same buffer, and frozen (−80° C.) for later use. The protein concentration was determined with the Pierce™ BCA Protein Assay Kit (Thermo Fisher Scientific).
LC/MS/MS analyses were performed using Thermal Fisher's LX4-TSQ Vantage system. This system consists of an Agilent binary high-performance liquid chromatography (HPLC) pump and a TSQ Vantage triple quadrupole MS/MS instrument. For each sample, 2 μL samples from the top organic layer of in-plate liquid-liquid extraction were injected onto a Thermo Betabasic C4 column (2.1 mm×20 mm, 5 μm particle size). The samples were then eluted using the following conditions; mobile phase: Isopropanol: acetonitrile/10 mM ammonium formate=50/35/15 (v/v/v), flow rate: 0.8 mL/min, temperature: 25° C. Data was acquired in positive mode using a heated electrospray ionization (HESI) interface. […] The peak area was integrated by Xcalibur Quan software. The ratio between the ^13C18 triolein generated in the reaction and spiked in internal standard ^13C21-triolein was used to generate percentage inhibition and IC50 values. […] DGAT2 activity was determined by measuring the amount of enzymatic product ^13C18-triolein (^13C-1,2,3-Tri(cis-9-octadecenoyl)glycerol) using the membrane prep mentioned above. The assay was carried out in ABgene 384-well assay plates in a final volume of 25 μL at rt.

Row | Compound | pIC50
1 | Cc1c(Oc2ncc(Cl)cc2OCC(F)(F)F)ccc2c1nc(C(=O)NC1(C)CCS(=O)(=O)CC1)n2C [Example 26, 5-((5-chloro-3-(2,2,2-trifluoroethoxy)pyridin-2-yl)oxy)-1,4-dimethyl-N-(4-methyl-1,1-dioxidotetrahydro-2H-thiopyran-4-yl)-1H-benzo[d]imidazole-2-carboxamide] | 7.36
2 | Cn1c(C(=O)NC2(C)CCS(=O)(=O)CC2)nc2cnc(Oc3ncc(Cl)cc3OCC(F)F)c(F)c21 [Example 76, 6-[[5-Chloro-3-(2,2-difluoroethoxy)-2-pyridyl]oxy]-7-fluoro-1-methyl-N-(4-methyl-1,1-dioxo-thian-4-yl)imidazo[4,5-c]pyridine-2-carboxamide] | 8.48
3 | Cn1c(C(=O)NC2(C)CCS(=O)(=O)CC2)nc2ccc(Oc3ncc(F)cc3OCC(F)F)nc21 [Example 30, 5-((3-(2,2-Difluoroethoxy)-5-fluoropyridin-2-yl)oxy)-3-methyl-N-(4-methyl-1,1-dioxidotetrahydro-2H-thiopyran-4-yl)-3H-imidazo[4,5-b]pyridine-2-carboxamide] | 8.85
4 | Cn1c(C(=O)NC2(C)CCS(=O)(=O)CC2)nc2cnc(OCc3ncc(Cl)cc3OCC(F)F)cc21 [Example 80, 6-((5-Chloro-3-(2,2-difluoroethoxy)pyridin-2-yl)methoxy)-1-methyl-N-(4-methyl-1,1-dioxidotetrahydro-2H-thiopyran-4-yl)-1H-imidazo[4,5-c]pyridine-2-carboxamide] | 7.52
5 | Cn1c(C(=O)NC2(C)CCS(=O)(=O)CC2)nc2ccc(OCC(OCC(F)F)C(F)F)nc21 (single isomer, unassigned) [Example 65a, 5-[2-(2,2-difluoroethoxy)-3,3-difluoro-propoxy]-3-methyl-N-(4-methyl-1,1-dioxo-thian-4-yl)imidazo[4,5-b]pyridine-2-carboxamide] | 6.67
6 | Cn1c(C(=O)NC2(C)CCS(=O)(=O)CC2)nc2ccc(OCc3ncc(Cl)cc3OCC(F)F)nc21 [Example 58, 5-((5-Chloro-3-(2,2-difluoroethoxy)pyridin-2-yl)methoxy)-3-methyl-N-(4-methyl-1,1-dioxidotetrahydro-2H-thiopyran-4-yl)-3H-imidazo[4,5-b]pyridine-2-carboxamide] | 8.64
7 | Cn1c(C(=O)NC2(C)CCS(=O)(=O)CC2)nc2ccc(OCC(CC(F)(F)F)OC(F)F)nc21 (single isomer, unassigned) [Example 62b, 5-[2-(difluoromethoxy)-4,4,4-trifluoro-butoxy]-3-methyl-N-(4-methyl-1,1-dioxo-thian-4-yl)imidazo[4,5-b]pyridine-2-carboxamide] | 6.79
8 | Cn1c(C(=O)NC2(C)CCS(=O)(=O)CC2)nc2cnc(Oc3ncc(Cl)cc3OCC(F)F)nc21 [Example 88, 2-[[5-Chloro-3-(2,2-difluoroethoxy)-2-pyridyl]oxy]-9-methyl-N-(4-methyl-1,1-dioxo-thian-4-yl)purine-8-carboxamide] | 7.24

Now from value to compound:

Row | pIC50 | Compound
9 | 6.22 | Cn1c(C(=O)NC2(C)CCS(=O)(=O)CC2)nc2c(F)c(Oc3ncc(Cl)cc3OCC(F)(F)F)ccc21 [Example 22, 5-((5-chloro-3-(2,2,2-trifluoroethoxy)pyridin-2-yl)oxy)-4-fluoro-1-methyl-N-(4-methyl-1,1-dioxidotetrahydro-2H-thiopyran-4-yl)-1H-benzo[d]imidazole-2-carboxamide]
10 | 6.24 | O=C(N[C@H]1CCCC(F)(F)[C@@H]1O)c1nc2ccc(Oc3ncc(Cl)cc3OCC(F)(F)F)cc2o1 [Example 1, 6-[[5-chloro-3-(2,2,2-trifluoroethoxy)-2-pyridyl]oxy]-N-[(1S,2R)-3,3-difluoro-2-hydroxy-cyclohexyl]-1,3-benzoxazole-2-carboxamide]
11 | 6.03 | CC1(NC(=O)c2nc3cc(Oc4ncccc4OCC(F)(F)F)ccc3o2)CCS(=O)(=O)CC1 [Example 10, N-(4-methyl-1,1-dioxidotetrahydro-2H-thiopyran-4-yl)-5-((3-(2,2,2-trifluoroethoxy)pyridin-2-yl)oxy)benzo[d]oxazole-2-carboxamide]
12 | 8.44 | CC(C)n1c(C(=O)NC2(C)CCS(=O)(=O)CC2)nc2ccc(Oc3ncc(Cl)cc3OCC(F)F)nc21 [Example 52, 5-((5-chloro-3-(2,2-difluoroethoxy)pyridin-2-yl)oxy)-3-isopropyl-N-(4-methyl-1,1-dioxidotetrahydro-2H-thiopyran-4-yl)-3H-imidazo[4,5-b]pyridine-2-carboxamide]

Same assay, conditions: read-out: Human DGAT2 IC50; hDGAT2 membrane prep from Sf-9 cells; 13C18-triolein product by LC/MS/MS

Row | Compound | pIC50
13 | CC1(NC(=O)c2nc3nc(Oc4ncc(Cl)cc4OCC(F)F)ccc3n2CC(F)F)CCS(=O)(=O)CC1 [Example 53, 5-((5-chloro-3-(2,2-difluoroethoxy)pyridin-2-yl)oxy)-1-(2,2-difluoroethyl)-N-(4-methyl-1,1-dioxidotetrahydro-2H-thiopyran-4-yl)-1H-imidazo[4,5-b]pyridine-2-carboxamide] | 6.87
14 | Cn1c(C(=O)NC2(C)CCS(=O)(=O)CC2)nc2cnc(Oc3ncc(Cl)cc3OCC(C)(F)F)cc21 [Example 67, 6-[[5-chloro-3-(2,2-difluoropropoxy)-2-pyridyl]oxy]-1-methyl-N-(4-methyl-1,1-dioxo-thian-4-yl)imidazo[4,5-c]pyridine-2-carboxamide] | 7.62
15 | CC1(NC(=O)c2nc3ccc(Oc4ncc(Cl)cc4OCC(F)F)nc3n2CC2(F)COC2)CCS(=O)(=O)CC1 [Example 57, 5-((5-chloro-3-(2,2-difluoroethoxy)pyridin-2-yl)oxy)-3-((3-fluorooxetan-3-yl)methyl)-N-(4-methyl-1,1-dioxidotetrahydro-2H-thiopyran-4-yl)-3H-imidazo[4,5-b]pyridine-2-carboxamide] | 6.74
16 | Cc1cc2nc(C(=O)NC3(C)CCS(=O)(=O)CC3)n(C)c2nc1Oc1ncc(F)cc1OCC(C)(F)F [Example 47, 5-[[3-(2,2-difluoropropoxy)-5-fluoro-2-pyridyl]oxy]-3,6-dimethyl-N-(4-methyl-1,1-dioxo-thian-4-yl)imidazo[4,5-b]pyridine-2-carboxamide] | 7.10
17 | CO[C@]1(C(F)(F)F)C[C@@H](NC(=O)c2nc3ccc(Oc4ncc(Cl)cc4OCC(F)(F)F)cc3o2)C1 [Example 7, 6-[[5-chloro-3-(2,2,2-trifluoroethoxy)-2-pyridyl]oxy]-N-[3-methoxy-3-(trifluoromethyl)cyclobutyl]-1,3-benzoxazole-2-carboxamide] | 5.85
18 | CCC(COc1ccc2nc(C(=O)NC3(C)CCS(=O)(=O)CC3)n(C)c2n1)OCC(C)(F)F (stereo not shown) [Example 61, 5-[2-(2,2-difluoropropoxy)butoxy]-3-methyl-N-(4-methyl-1,1-dioxo-thian-4-yl)imidazo[4,5-b]pyridine-2-carboxamide] | 7.36
19 | Cc1nc(Oc2ncc(Cl)cc2OCC(F)F)cc2c1nc(C(=O)NC1(C)CCS(=O)(=O)CC1)n2C [Example 74, 6-[5-chloro-3-(2,2-difluoroethoxy)pyridin-1-ium-2-yl]oxy-1,4-dimethyl-N-(4-methyl-1,1-dioxo-thian-4-yl)imidazo[4,5-c]pyridine-2-carboxamide] | 7.85
20 | Cn1c(C(=O)N[C@H]2CCCC(F)(F)[C@@H]2O)nc2cnc(Oc3ncc(Cl)cc3OCC(F)F)cc21 [Example 75, 6-[[5-chloro-3-(2,2-difluoroethoxy)-2-pyridyl]oxy]-N-[(1S,2R)-3,3-difluoro-2-hydroxy-cyclohexyl]-1-methyl-imidazo[4,5-c]pyridine-2-carboxamide] | 8.00
21 | CC1(NC(=O)c2nc3ccc(Oc4ncc(Cl)cc4OCC(F)F)nc3n2CC(F)F)CCS(=O)(=O)CC1 [Example 54, 5-((5-chloro-3-(2,2-difluoroethoxy)pyridin-2-yl)oxy)-3-(2,2-difluoroethyl)-N-(4-methyl-1,1-dioxidotetrahydro-2H-thiopyran-4-yl)-3H-imidazo[4,5-b]pyridine-2-carboxamide] | 9.22
22 | Cn1c(C(=O)NC2(C)CS(=O)(=O)C2)nc2ccc(Oc3ncccc3OCC(F)(F)F)nc21 [Example 35, 3-methyl-N-(3-methyl-1,1-dioxidothietan-3-yl)-5-((3-(2,2,2-trifluoroethoxy)pyridin-2-yl)oxy)-3H-imidazo[4,5-b]pyridine-2-carboxamide] | < 5.00
23 | Cn1c(C(=O)NC2(C)CCS(=O)(=O)CC2)nc2ccc(Oc3nccnc3OCC(F)F)nc21 [Example 38, 5-[3-(2,2-difluoroethoxy)pyrazin-2-yl]oxy-3-methyl-N-(4-methyl-1,1-dioxo-thian-4-yl)imidazo[4,5-b]pyridine-2-carboxamide] | 7.70

Continued, values first:

Row | pIC50 | Compound
24 | 8.20 | Cc1cc2nc(C(=O)NC3(C)CCS(=O)(=O)CC3)n(C)c2nc1Oc1ncc(F)cc1OCC(F)F [Example 48, 5-[[3-(2,2-difluoroethoxy)-5-fluoro-2-pyridyl]oxy]-3,6-dimethyl-N-(4-methyl-1,1-dioxo-thian-4-yl)imidazo[4,5-b]pyridine-2-carboxamide]
25 | 7.33 | CC1(NC(=O)c2nc3ccc(Oc4ncccc4OCC(F)(F)F)cc3o2)CCS(=O)(=O)CC1 [Example 2, N-(4-methyl-1,1-dioxo-thian-4-yl)-6-[[3-(2,2,2-trifluoroethoxy)-2-pyridyl]oxy]-1,3-benzoxazole-2-carboxamide]
26 | 7.92 | CC1(NC(=O)c2nc3ccc(Oc4ncccc4OCC(F)(F)F)cc3s2)CS(=O)(=O)C1 [Example 92, N-(3-methyl-1,1-dioxo-thietan-3-yl)-6-[[3-(2,2,2-trifluoroethoxy)-2-pyridyl]oxy]-1,3-benzothiazole-2-carboxamide]
27 | 7.92 | Cn1c(C(=O)NC2(C)CCS(=O)(=O)CC2)nc2ncc(Oc3ncc(F)cc3OCC(F)(F)F)cc21 [Example 83, 6-[[5-fluoro-3-(2,2,2-trifluoroethoxy)-2-pyridyl]oxy]-1-methyl-N-(4-methyl-1,1-dioxo-thian-4-yl)imidazo[4,5-b]pyridine-2-carboxamide]
28 | 6.58 | Cn1c(C(=O)NC2(C)CCS(=O)(=O)CC2)nc2cnc(OCc3ncc(F)cc3OCC(F)(F)F)cc21 [Example 81, 6-[[5-Fluoro-3-(2,2,2-trifluoroethoxy)-2-pyridyl]methoxy]-1-methyl-N-(4-methyl-1,1-dioxo-thian-4-yl)imidazo[4,5-c]pyridine-2-carboxamide]
